Results: patent publication US6541463B1, “Inhibitors of type 5 and type 3 17β-hydroxysteroid dehydrogenase and methods for their use” (Endorecherche, Inc., priority 1998, dated 2003)

Tests used:
estrogen receptor = target: T1, estrogen receptor (Rattus norvegicus, UniProt P06211); assay: Estrogen receptor (ER) assay: inhibition of [3H]E2 binding, uterine cytosol
T1 construct: from tissue; host or cells: uterine cytosol of gonadectomized female Sprague-Dawley rats
T1 sequence (P06211 1-600): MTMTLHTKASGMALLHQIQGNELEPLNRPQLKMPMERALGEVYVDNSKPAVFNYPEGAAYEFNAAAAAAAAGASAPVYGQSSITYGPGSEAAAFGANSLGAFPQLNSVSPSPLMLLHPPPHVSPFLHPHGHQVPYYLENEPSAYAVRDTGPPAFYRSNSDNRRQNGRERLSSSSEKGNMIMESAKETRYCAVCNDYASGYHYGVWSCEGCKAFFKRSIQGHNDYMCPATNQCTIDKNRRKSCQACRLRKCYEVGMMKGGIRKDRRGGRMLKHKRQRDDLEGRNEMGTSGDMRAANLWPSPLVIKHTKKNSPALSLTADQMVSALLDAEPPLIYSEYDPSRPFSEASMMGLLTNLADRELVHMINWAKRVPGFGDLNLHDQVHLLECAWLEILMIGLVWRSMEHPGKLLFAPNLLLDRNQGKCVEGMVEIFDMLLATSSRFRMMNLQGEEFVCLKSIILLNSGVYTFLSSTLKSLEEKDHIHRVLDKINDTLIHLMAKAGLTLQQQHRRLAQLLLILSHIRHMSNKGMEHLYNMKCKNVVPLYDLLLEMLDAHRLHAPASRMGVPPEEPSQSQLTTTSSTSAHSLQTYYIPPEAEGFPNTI
Description: Female Sprague-Dawley rats (Crl: CD(SD)Br) weighing 200-300 g were obtained from Charles-River Inc. (St-Constant, Québec, Canada). The rats were gonadectomized under general anesthesia (Isoflurane) and killed by cervical dislocation 24 hours later. The uteri were rapidly removed, dissected free from adhering tissue and frozen on dry-ice. Uteri were kept at −80° C. until assay. All subsequent steps were performed at 0-4° C. Uteri were homogenized in 10 vol (wt/vol) of buffer A (25 mM Tris-HCI, 1.5 mM EDTA disodium salt, 10 mM α-monothioglycerol, 10% glycerol, and 10 mM sodium molybdate, pH 7.4), using a Polytron PT-10 homogenizer (Brinkman Instruments, Canada) at a setting of 5 for three periods of 10 sec, with intervals of 10 sec for cooling. The homogenate was then centrifuged at 105,000×g for 60 min in a Beckman L5-65 ultracentrifuge (Fullerton, Calif.). The protein concentration of the cytosol fraction was measured according to the method of Bradford (Anal. Biochem. 72: 248-254, 1976), using bovine serum albumin as standard.
Estrogen binding was measured using the dextran-coated charcoal adsorption technique as described previously (Asselin et al., Endocrinology, 101: 666-671, 1977; Asselin and Labrie, J. Steroid Biochem., 9: 1079-1082, 1978). Briefly, [^3H]E2 solubilized in ethanol were diluted into buffer A. Aliquots of uterine cytosol preparation (0.1 ml) were incubated with 5 nM [^3H]E2 (˜200,000 cpm, 0.1 ml) in the presence or absence of the indicated concentrations of unlabeled compounds (0.1 ml, prepared in buffer A containing 10% ethanol) for 3 h at room temperature. Unbound steroids were then separated by incubation for 15 min at 0-4° C. with 0.3 ml 0.5% Norit-A and 0.05% Dextran T-70 in buffer B (1.5 mM EDTA disodium salt, 10 mM monothioglycerol, and 10 mM Tris-HCI, pH 7.4) and centrifuged at 3,000×g for 15 min. Aliquots of the supernatant (0.3 ml) were removed for radioactivity measurement.

[1] = In vivo assay of oral bioavailability (plasma AUC 0-7 h by LCMS/MS); parameters: species or system male Sprague Dawley rats; settings: male, Sprague-Dawley [Crl:CD(SD)Br], 0.5 mg
Description: In column 1, the oral bioavailability of preferred type 5 inhibitors, expressed in ng/mL.h, was determined as described below in “Other Tests, A-In Vivo Assays of Bioavailability of Human Type 5 17β-HSD Inhibitors”. Higher number are desirable. ND means that a determination was not done.
The measurements at various time intervals were for values greater than or equal to 1.0 ng/mL and less than or equal to 50 ng/mL.
Male Sprague-Dawley rats [Crl:CD(SD)Br] weighing 275-350 g were obtained from Charles-River Canada Inc. and housed 2 per cage during the acclimation period and individually during the study period. The animals were maintained under a regimen of 12 hours light: 12 hours dark (lights on at 08:00). Animals received certified Rodent feed (Lab Diet #5002, pellets) and tap water ad libitum. Rats were fasted (access to water only) starting on the evening prior to dosing.
Each compound to be tested was administered to three animals as a suspension in 0.4% methylcellulose by oral gavage at a dose of 0.5 mg/rat (1.0 ml/rat). Four to eight new compounds were tested each day and one group of animals received megestrol acetate (MGA) under the same conditions on each dosing day as a reference. […] Blood samples were immediately transferred into a refrigerated 0.75 ml Microtainer containing EDTA and kept in an ice-water bath until centrifugation at 3000 rpm for 10 minutes. Plasma separation was performed rapidly (less than 50 minutes) after blood collection. One aliquot of 0.25 ml of plasma was then transferred into a borosilicate tube (13×100) and was rapidly frozen on dry-ice. Plasma samples were kept at −80° C. until measurement of plasma concentration of the inhibitor(s) by LCMS/MS.
Aliquots of rat plasma (0.250 mL) were transferred to 13×100 mm borosilicate tubes. Water (1.0 mL) and internal standard solution (0.1 mL) were added to each sample and vortexed for 2 min. A mixture of N-butyl chloride and acetone (v:v, 7:3) (3 mL) was added to each sample and vortexed for 2 min. This step was repeated and the combined organic phases were evaporated to dryness under nitrogen in a Turbo Vap evaporator at 35° C. The residue was reconstituted with 1 mL of methanol and evaporated in a Turbo Vap evaporator at 35° C. The final extract was reconstituted into 0.1 mL of methanol/water (v:v, 75:25) and then transferred into a conical vial for injection into the mass spectrometer.
The assay procedure was performed by analyzing, in duplicate, rat plasma samples spiked at six different Type 5 inhibitor concentrations (1, 2, 5, 10, 20 and 50 ng/mL). The lower limit of quantitation (LOQ) was established at 1.0 ng/mL. Values lower than 1.0 ng/mL were expressed as below limit of quantification (BLQ). […]

SMILES	% Inhibition Estrogen Receptor E^−6 (estrogen receptor; Table 4′)	% Inhibition Estrogen Receptor E^−8 (estrogen receptor; Table 4′)	also measured
CC12C=CC(=O)C=C1C=CC1C2CCC2(C)C(=O)C3(CCCCC3)CC12 (centres unmarked) [CS-204]			% Inhibition Estrogen Receptor E^−6 (estrogen receptor): 0%; % Inhibition Estrogen Receptor E^−8 (estrogen receptor): 0%
CC1(C)CCC2(CCC3C4CCc5ccccc5C4CCC32C)OC1=O (centres unmarked) [CS-224]	2%	0%	AUC(0-t) ([1]; Table 4′, oral, rat plasma): 18 ± 3.5 ng·h/mL
CC(=O)O[C@]1(C)C(=O)CCC2C3C=C(C)C4=CC(=O)C=C[C@]4(C)C3CC[C@@]21C (some centres unmarked) [CS-237]			% Inhibition Estrogen Receptor E^−6 (estrogen receptor): 0%; % Inhibition Estrogen Receptor E^−8 (estrogen receptor): 0%
CSCCOc1ccc2c(c1)CCC1C2CCC2(C)C1CCC21CCCC(=O)O1 [CS-242, 3-Methylthioethyloxy-1,3,5(10)-estratrien-17(R)-spiro-2′-(6′-oxo) Tetrahydropyran]	0%	0%	
CC1CCC2(CCC3C4CCc5ccccc5C4CCC32C)OC1=O (centres unmarked) [EM-1025]	4%	1%	
CCCC(=O)O[C@]1(C)C(=O)CCC2C3C=C(C)C4=CC(=O)CC[C@]4(C)C3CC[C@@]21C (some centres unmarked) [EM-1078]			% Inhibition Estrogen Receptor E^−6 (estrogen receptor): 0%; % Inhibition Estrogen Receptor E^−8 (estrogen receptor): 5%
CN1C(=O)C=C[C@]2(C)C3CC[C@@]4(C)C(CC[C@@]45CCCC(=O)O5)C3CCC12 (some centres unmarked) [EM-1122-CS]			% Inhibition Estrogen Receptor E^−6 (estrogen receptor; Table 5 column 16): 0%; % Inhibition Estrogen Receptor E^−8 (estrogen receptor; Table 5 column 16): 2%
CC1CCC2(CCC3C4CCc5cc(O)c([N+](=O)[O-])cc5C4CCC32C)OC1=O [EM-1126, 2-Nitro-1,3,5(10)-estratrien-3-ol-17(R)-spiro-2′-(5′-methyl-6′-oxo)tetrahydropyran]	0%	1%	
CC12CCC3c4ccc(F)cc4CCC3C1CCC21CCCC(=O)O1 (centres unmarked) [EM-1170-CS]	0%	0%	
CCC[C@]1(F)CC2C3C=CC4=CC(=O)CC[C@]4(C)C3CC[C@]2(C)C1=O (some centres unmarked) [EM-1183]			% Inhibition Estrogen Receptor E^−6 (estrogen receptor): 0%; % Inhibition Estrogen Receptor E^−8 (estrogen receptor): 0%
C[C@]12CCC(=O)C=C1C=C[C@@H]1[C@@H]2CC[C@]2(C)C(=O)C3(CC4CC4C3)C[C@@H]12 (some centres unmarked) [EM-1299, 4,6-Androstadien-3,17-dione-16-spirobicyclo[3′.1′.0′]-hexane]			% Inhibition Estrogen Receptor E^−6 (estrogen receptor): 3%; % Inhibition Estrogen Receptor E^−8 (estrogen receptor): 3%
CCS(=O)(=O)Oc1ccc2c(c1)CCC1C2CCC2(C)C1CCC21CCC(C)(C)C(=O)O1 (centres unmarked) [EM-1364-CS]	5%	0%	
CC1(C)CCC2(CCC3C4CCc5cc(OS(C)(=O)=O)ccc5C4CCC32C)OC1=O (centres unmarked) [EM-1365-CS]	4%	2%	
COCCOc1ccc2c(c1)CCC1C2CCC2(C)C1CCC21CCC(C)(C)C(=O)O1 [EM-1368-CS, 3-Methoxyethoxy-1,3,5(10)-estratrien-17(R)-spiro-2′-(5′,5′-dimethyl-6′-oxo)-tetrahydropyran]	0%	0%	
CCOc1ccc2c(c1)CCC1C2CC[C@@]2(C)C1CC[C@@]21CCC(C)(C)C(=O)O1 (stereo partly drawn) [EM-1369, 3-Ethoxy-1,3,5(10)-estratrien-17(R)-spiro-2′-(5′,5′-dimethyl-6′-oxo)-tetrahydropyran]	0%	2%	
COc1ccc2c(c1)CCC1C2CCC2(C)C1CCC21CCC(C)(C)C(=O)O1 (centres unmarked) [EM-1370]	2%	0%	
CC1(C)CC[C@@]2(CC[C@H]3[C@@H]4CCc5c(cc(Br)c(O)c5Br)[C@H]4CC[C@@]32C)OC1=O [EM-1382-CS]	3%	0%	
CN(C)C(=O)c1ccc2c(c1)CCC1C2CCC2(C)C1CCC21CCC(C)(C)C(=O)O1 (centres unmarked) [EM-1403]	0%	0%	
COCCOc1cc2c(cc1C(=O)O)C1CCC3(C)C(CCC34CCC(C)(C)C(=O)O4)C1CC2 [EM-1405, 2-Carboxy-3-(2″-methoxyethyloxy)-1,3,5(10)-estratrien-17(R)-spiro-2′-(5′,5′-dimethyl-6′-oxo)tetrahydropyran]	0%	0%	
CC1(C)CC[C@@]2(CCC3C4CCc5cc6oncc6cc5C4CC[C@@]32C)OC1=O (stereo partly drawn) [EM-1407-CS, 1,3,5(10)-estratrien-(2,3-oximino)-17(R)-spiro-2′-(5′,5′-dimethyl-6′-oxo)tetrahydropyran]	0%	2%	
COCCOc1ccc2c(c1)C(=O)CC1C2CCC2(C)C1CCC21CCC(C)(C)C(=O)O1 (centres unmarked) [EM-1408-CS]	6%	0%	
COc1cc2c(cc1C(F)(F)F)C1CCC3(C)C(CCC34CCC(C)(C)C(=O)O4)C1CC2 [EM-1409, 3-Methoxy-2-trifluoromethyl-1,3,5(10)-estratrien-17(R)-spiro-2′-(5′,5′-dimethyl-6′-oxo)tetrahydropyran]			AUC(0-t) ([1]; Table 4′, oral, rat plasma): 36 ± 13 ng·h/mL
COc1cc2c(cc1C)C1CCC3(C)C(CCC34CCC(C)(C)C(=O)O4)C1CC2 (centres unmarked) [EM-1412-CS]	0%	0%	
COCCOc1cc2c(cc1C(F)(F)F)[C@H]1CC[C@@]3(C)[C@@H](CC[C@@]34CCC(C)(C)C(=O)O4)[C@@H]1CC2 [EM-1438, 3-(2′-Methoxyethoxy)-2-trifluoromethyl-1,3,5(10)-estratrien-17(R)-spiro-2′-(5′,5′-dimethyl-6′-oxo)tetrahydropyran]	0%	4%	
CC1(C)CCC2(CCC3C4CCc5cc(O)c(C#N)cc5C4CCC32C)OC1=O (centres unmarked) [EM-01645]			AUC(0-t) ([1]; Table 4′, oral, rat plasma): 52 ± 3 ng·h/mL
CC(=O)O[C@]1(C(C)=O)CCC2C3C=C(C)C4=CC(=O)CC[C@]4(C)C3CC[C@@]21C (some centres unmarked) [megestrol acetate, reference compound]			AUC(0-t) ([1]; rat, plasma, po): 92 ± 17 ng·h/mL
